Where two headings read alike, the source gives them in different places.
Key:
A-1 receptors = details: cited from earlier work
[1] = in vivo; cited from earlier work
A-2 receptors = details: cited from earlier work
adenosine A-2 receptors = target: T1, adenosine A-2 receptors (Rattus norvegicus, UniProt P30543); assay: Affinity for brain adenosine A-2 receptors ([3H]NECA displacement, rat brain striatum membranes); format: binding
T1 construct: from tissue; host or cells: striatal membranes of young male rats (C-D strain, from Charles River)
Description: The pellet is finally resuspended in 40 vol. of 50mM Tris-HCl (pH 7.7) per gram of original wet weight of tissue.
Incubations are carried out at 25° C. for 60 minutes. Each tube is filtered through GF/B glass fiber filters using a vacuum. The filters are rinsed two times with 5 ml of the ice-cold buffer. […] The filters are counted by liquid scintillation spectrometry.
Specific binding of [3H]NECA is measured as the excess over blanks run in the presence of 100 μM 2-chloroadenosine. […] Specific binding to membranes is about 50% of the total bound.

Adenosine A-1 receptor = target: T2, Adenosine A-1 receptor (Rattus norvegicus, UniProt P25099)
T2 sequence (P25099 1-326): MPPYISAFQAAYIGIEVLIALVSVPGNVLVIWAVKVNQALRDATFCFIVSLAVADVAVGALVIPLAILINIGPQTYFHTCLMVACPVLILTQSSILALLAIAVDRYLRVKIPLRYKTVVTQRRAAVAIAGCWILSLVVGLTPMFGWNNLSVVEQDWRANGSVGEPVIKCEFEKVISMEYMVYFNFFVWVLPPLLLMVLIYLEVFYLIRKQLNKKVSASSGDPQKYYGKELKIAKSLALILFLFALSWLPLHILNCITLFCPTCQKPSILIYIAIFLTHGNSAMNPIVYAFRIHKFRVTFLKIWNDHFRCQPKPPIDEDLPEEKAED

[2] = ratio of A-2 Ki to A-1 Ki (selectivity)

T1 sequence (P30543 whole entry): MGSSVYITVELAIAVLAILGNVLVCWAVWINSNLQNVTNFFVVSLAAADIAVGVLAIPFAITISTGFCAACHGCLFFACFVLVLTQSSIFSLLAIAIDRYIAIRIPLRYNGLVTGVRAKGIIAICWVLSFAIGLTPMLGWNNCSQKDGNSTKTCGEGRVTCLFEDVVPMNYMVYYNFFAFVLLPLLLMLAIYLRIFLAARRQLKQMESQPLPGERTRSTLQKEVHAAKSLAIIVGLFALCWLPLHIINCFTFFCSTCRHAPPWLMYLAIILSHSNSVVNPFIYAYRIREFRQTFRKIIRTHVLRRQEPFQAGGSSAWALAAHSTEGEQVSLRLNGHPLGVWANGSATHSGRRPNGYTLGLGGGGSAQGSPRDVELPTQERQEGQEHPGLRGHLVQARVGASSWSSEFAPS

CCCn1c(=O)c2[nH]c(-c3ccc(OCC(=O)NCCN)cc3)nc2n(CCC)c1=O [XAC, amino congener of 8-phenyl-1,3-dipropyl-xanthine]
higher affinity for A-1 adenosine receptors vs A-2 (A-1 receptors; A-1 brain membranes versus A-2 brain slice assay): 40 fold | antagonizing the effects of adenosine analogs on heart rate versus blood pressure [1]: much more potent in antagonizing the effects of adenosine analogs on heart rate than on blood pressure

Nc1nc(Cl)nc2c1ncn2[C@@H]1O[C@H](CO)[C@@H](O)[C@H]1O [2-chloroadenosine]
order of potency at A-2 receptors (A-2 receptors): NECA>2-chloroadenosine>R-PIA>CHA

C1=Nc2c(cnn2-c2ccccc2)C2=N[C@H](Cc3ccccc3)CN12 [Compound 3, (R)-2,7-dihydro-7-phenyl-2-(phenylmethyl)-3H-imidazo[1,2-c]pyrazolo[4,3-e]pyrimidine]
A-2 Ki/A-1 Ki (adenosine A-2 receptors; [2]): 13.20

OC[C@H]1O[C@@H](n2cnc3c2N=CN2C[C@H](Cc4ccccc4)N=C32)[C@H](O)[C@@H]1O [Compound 13, (S)-7,8-dihydro-3-(β-D-ribofuranosyl)-8-(phenylmethyl)-3H-diimidazo[1,2-c:4',5'-e]pyrimidine]
A-2 Ki/A-1 Ki (adenosine A-2 receptors): 1.70

OC[C@H]1O[C@@H](n2cnc3c2N=CN2C[C@@H](Cc4ccccc4)N=C32)[C@H](O)[C@@H]1O [Compound 14, (R)-7,8-dihydro-3-(β-D-ribofuranosyl)-8-(phenylmethyl)-3H-diimidazo[1,2-c:4',5'-e]pyrimidine]
A-2 Ki/A-1 Ki (adenosine A-2 receptors): 5.50

CCCOC1=Nc2c(cnn2-c2ccccc2)C2=N[C@@H](Cc3ccccc3)CN12 [Compound 2, (S)-2,7-dihydro-7-phenyl-2-(phenylmethyl)-5-propoxy-3H-imidazo[1,2-c]pyrazolo[4,3-e]pyrimidine]
A-2 Ki/A-1 Ki (adenosine A-2 receptors; [2]): 0.18

CCNC(=O)[C@H]1O[C@@H](n2cnc3c(N)ncnc32)[C@H](O)[C@@H]1O [NECA, N-5'-ethylcarboxamidoadenosine]
order of potency at A-2 receptors (A-2 receptors): NECA>2-chloroadenosine>R-PIA>CHA

C1=Nc2c(ncn2-c2ccccc2)C2=N[C@H](Cc3ccccc3)CN12 [Compound 6, (R)-7,8-dihydro-3-phenyl-8-(phenylmethyl)-3H-diimidazo[1,2-c:4',5'-e]pyrimidine]
A-2 Ki/A-1 Ki (adenosine A-2 receptors): 16.40

CCCn1c(=O)c2[nH]c(-c3ccc(OCC(=O)O)cc3)nc2n(CCC)c1=O [XCC, carboxylic acid congener of 8-phenyl-1,3-dipropyl-xanthine]
adenosine receptor selectivity (A-1 receptors; A-1 vs A-2, in vitro): non-selective

CCCOC1=Nc2c(ncn2-c2ccccc2)C2=N[C@@H](Cc3ccccc3)CN12 [Compound 12, (S)-7,8-dihydro-3-phenyl-8-(phenylmethyl)-5-propoxy-3H-diimidazo[1,2-c:4',5'-e]pyrimidine]
Ki (adenosine A-2 receptors; [3H]NECA, rat brain striatum membranes, 25° C., 60 minutes, read-out: A-2 Receptor Ki): 1.6 µM | A-2 Ki/A-1 Ki (adenosine A-2 receptors; [2]): 0.18 | Ki (Adenosine A-1 receptor): 9 µM

CCCOC1=Nc2c(cnn2-c2ccccc2)C2=N[C@H](C)[C@@H](c3ccccc3)N12 [Compound 7, (2R-trans)-2,7-dihydro-2-methyl-3,7-diphenyl-5-propoxy-3H-Imidazo[1,2-c]pyrazolo[4,3-e]pyrimidine]
A-2 Ki/A-1 Ki (adenosine A-2 receptors; [2]): 1.17

— patent US5064947A (priority 1990, dated 1991)
